# Tested on: K24384-001-R-PDC complex spheroid viability
# Assay: Anticancer human tumor K24384-001-R-PDC patient-derived pancreatic adenocarcinoma cell line growth inhibition
# Settings: for IC50: curve of first compound; for viability, T/C: stronger effect = lower value
# Text: Multicellular complex tumor spheroid response to LSD1 Inhibitor Iadademstat in combination with a variety of drugs and investigational agents in selected tumor cell lines
# The current study was undertaken to assess response to LSD1 inhibitors in combination with standard-of-care drugs and investigational agents in solid tumor complex spheroid models as well as in the K-562 leukemia. Complex spheroids include a stromal component modeled by human endothelial cells (HUVEC) and fibroblasts modeled by human mesenchymal stem cells (MSCs). The concentration ranges selected for each drug and investigational agent were based upon clinically achievable concentrations if the clinical Cmax of the agent was known.
# Compounds. The drugs and investigational agents used in this study are listed on Table 1. All of the agents used, including staurosporine (NSC755774) and gemcitabine (NSC613327), were obtained from the Developmental Therapeutics Program, NCI. FDA-approved anticancer drugs are available from the NCI at http://dtp.nci.nih.gov/branches/dscb/oncology_drugset_explanation.html. Drugs and investigational agents were >95% pure by proton nuclear magnetic resonance (NMR) and liquid chromatography/mass spectrometry (LC/MS). Stock solutions were prepared at 400x in DMSO, stored at -70 degrees C, and diluted in fresh medium prior to their use. The final concentration of DMSO in cell culture wells never exceeded 0.25% (v/v). The FDA-approved anticancer drug set is available from the Developmental Therapeutics Program at https://dtp.cancer.gov/organization/dscb/obtaining/available_plates.htm. All drugs and investigational agents were tested over a range starting from a high concentration at or near the clinical Cmax and decreasing in half-log increments. If the clinical Cmax for an agent had not been determined, the highest concentration tested was 10 microM.
# Cell Lines. The patient-derived cancer cell (PDC) lines: 292921-168-R-J2-PDC, K24384-001-R-PDC, and 521955-158-R2-J5-PDC pancreatic carcinomas, 556581-035-R-J1 ovarian carcinoma, 324938-238-R-J1-PDC, 855422-203-R-J1-PDC and 883617-216-R-J1-PDC urothelial bladder carcinomas, 743489-274-T-PDC renal cell carcinoma, 138582-R-J1 Merkel cell tumor, K60290-347-R-J1 and K57222-313-R-J1-PDC glioblastomas, 653999-131-R-J2-PDC, LG0703-F948-PDC, and 349418-098-R-PDC non-small cell lung carcinomas, 885512-296-R-J2-PDC, 171881-019-R-J1-PDC breast carcinomas and 186277-243-T-J2-PDC and 233499-124-R-J2-PDC colon carcinomas were obtained from the NCI Patient-Derived Models Repository (PDMR, https://pdmr.cancer.gov). The established cell lines NCI/ADR-RES (RRID:CVCL_14520 and OVCAR-5 (RRID:CVCL_1628) ovarian carcinomas, 786-O (RRID:CVCL_1051) and A498 (RRID:CVCL_A498) renal cell carcinoma, NCI-H211 (ATCC, cat. CRL-5824; RRID:CVCL_1529), NCI-H196 (ATCC, cat. CRL-5823, RRID:CVCL_1509), SW 1271 (ATCC, cat. CRL-2177, RRID:CVCL_1716) and NCI-H1876 (ATCC, cat. CRL-5902, RRID:CVCL_1503) small cell lung carcinomas, MDA-MB-231 (RRID:CVCL_0062) and MDA-MB-468 (RRID:CVCL_0419)breast carcinomas (10-12). Pooled donor human umbilical vein endothelial cells (HUVEC, Lonza, cat. CC-2519) and human mesenchymal stem cells (hMSC, Lonza, cat. PT-2501) were purchased from Lonza (Walkersville, MD).
# Cell Culture. All cells were maintained in an incubator at 37 degrees C and 5% CO2 with 95% humidity. The PDC lines were cultured according to standard operating procedures established by the NCI PDMR (https://pdmr.cancer.gov). Briefly all PDCs were thawed and cultured in Matrigel-coated flasks prepared with a working solution of 1X Ham's F-12 nutrient mix, without supplementation (Invitrogen, Waltham, MA, cat. 11765054), 100 U/mL penicillin-streptomycin (Invitrogen, cat. 15140122), and 2.5% Matrigel (Corning Inc., Corning, NY, cat. 354248) for the first three passages. […]
# [1] = second compound 0.1 µM, first compound 0.00949 µM
# [2] = second compound 0.1 µM, first compound 0.03 µM
# [3] = second compound 0.1 µM, first compound 0.0949 µM
# [4] = second compound 0.1 µM, first compound 0.3 µM
# [5] = second compound 0.316 µM, first compound 0.00949 µM
# [6] = second compound 0.316 µM, first compound 0.03 µM
# [7] = second compound 0.316 µM, first compound 0.0949 µM
# [8] = second compound 0.316 µM, first compound 0.3 µM
# [9] = second compound 1 µM, first compound 0.00949 µM
# [10] = second compound 1 µM, first compound 0.03 µM
# [11] = second compound 1 µM, first compound 0.0949 µM
# [12] = second compound 1 µM, first compound 0.3 µM
# [13] = second compound 3.16 µM, first compound 0.00949 µM
# [14] = second compound 3.16 µM, first compound 0.03 µM
# [15] = second compound 3.16 µM, first compound 0.0949 µM
# [16] = second compound 3.16 µM, first compound 0.3 µM
# [17] = second compound 10 µM, first compound 0.00949 µM
# [18] = second compound 10 µM, first compound 0.03 µM
# [19] = second compound 10 µM, first compound 0.0949 µM
# [20] = second compound 10 µM, first compound 0.3 µM
# 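Further: spheroids exposed to agents for seven days before luminescence viability reading.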
# 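Wherever viability, T/C is given: 100% = DMSO vehicle control viability.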
SMILES,IC50 (second compound 0.1 µM) [nM],IC50 (second compound 0.316 µM) [nM],IC50 (second compound 1 µM) [nM],IC50 (second compound 3.16 µM) [nM],IC50 (second compound 10 µM) [nM],"viability, T/C [1] [%]","viability, T/C [2] [%]","viability, T/C [3] [%]","viability, T/C [4] [%]","viability, T/C [5] [%]","viability, T/C [6] [%]","viability, T/C [7] [%]","viability, T/C [8] [%]","viability, T/C [9] [%]","viability, T/C [10] [%]","viability, T/C [11] [%]","viability, T/C [12] [%]","viability, T/C [13] [%]","viability, T/C [14] [%]","viability, T/C [15] [%]",other results
COc1cc(C2c3cc4c(cc3C(OC3OC5COC(C)OC5C(O)C3O)C3COC(=O)C23)OCO4)cc(OC)c1O (stereo not given) + NC1CCC(NC2CC2c2ccccc2)CC1,1330,1860,2650,> 3000,2620,91.2,92.8,86.4,65.3,107,83.3,79.7,75.7,98.4,97.2,69.3,72.6,87.8,102,67.9,"viability, T/C (second compound 0.1 µM, first compound 0.949 µM): 55.9%; viability, T/C (second compound 0.1 µM, first compound 3 µM): 42.8%; viability, T/C (second compound 0.316 µM, first compound 0.949 µM): 57.2%; viability, T/C (second compound 0.316 µM, first compound 3 µM): 43.2%; viability, T/C (second compound 1 µM, first compound 0.949 µM): 59.6%; viability, T/C (second compound 1 µM, first compound 3 µM): 47.8%; viability, T/C [16]: 65%; viability, T/C (second compound 3.16 µM, first compound 0.949 µM): 57.9%; viability, T/C (second compound 3.16 µM, first compound 3 µM): 54%; viability, T/C [17]: 88.2%; viability, T/C [18]: 98.4%; viability, T/C [19]: 90.1%; viability, T/C [20]: 73.2%; viability, T/C (second compound 10 µM, first compound 0.949 µM): 66%; viability, T/C (second compound 10 µM, first compound 3 µM): 47.4%"
Nc1ccn(C2OC(CO)C(O)C2(F)F)c(=O)n1 (stereo not given) + NC1CC1c1ccc(-c2cccc(O)c2)cc1,28.3,43,38.1,46,90.9,63.4,48,41.9,37.2,68,49.5,44.9,35.8,63.6,53.2,41.1,32,67.1,56,42.1,"viability, T/C (second compound 0.1 µM, first compound 0.000949 µM): 82.5%; viability, T/C (second compound 0.1 µM, first compound 0.003 µM): 72.9%; viability, T/C (second compound 0.316 µM, first compound 0.000949 µM): 87.9%; viability, T/C (second compound 0.316 µM, first compound 0.003 µM): 73.4%; viability, T/C (second compound 1 µM, first compound 0.000949 µM): 75%; viability, T/C (second compound 1 µM, first compound 0.003 µM): 84.5%; viability, T/C (second compound 3.16 µM, first compound 0.000949 µM): 98.5%; viability, T/C (second compound 3.16 µM, first compound 0.003 µM): 81.2%; viability, T/C [16]: 31.5%; viability, T/C (second compound 10 µM, first compound 0.000949 µM): 103%; viability, T/C (second compound 10 µM, first compound 0.003 µM): 99%; viability, T/C [17]: 95.5%; viability, T/C [18]: 69.3%; viability, T/C [19]: 51.3%; viability, T/C [20]: 40.2%"
